Experimental data: BindingDB's records for doi:10.1021/bi00419a019 (University of Wisconsin, 1988)

Target: T1, Aminopeptidase B (Mus musculus, UniProt Q8VCT3)
T1 sequence (Q8VCT3 whole entry): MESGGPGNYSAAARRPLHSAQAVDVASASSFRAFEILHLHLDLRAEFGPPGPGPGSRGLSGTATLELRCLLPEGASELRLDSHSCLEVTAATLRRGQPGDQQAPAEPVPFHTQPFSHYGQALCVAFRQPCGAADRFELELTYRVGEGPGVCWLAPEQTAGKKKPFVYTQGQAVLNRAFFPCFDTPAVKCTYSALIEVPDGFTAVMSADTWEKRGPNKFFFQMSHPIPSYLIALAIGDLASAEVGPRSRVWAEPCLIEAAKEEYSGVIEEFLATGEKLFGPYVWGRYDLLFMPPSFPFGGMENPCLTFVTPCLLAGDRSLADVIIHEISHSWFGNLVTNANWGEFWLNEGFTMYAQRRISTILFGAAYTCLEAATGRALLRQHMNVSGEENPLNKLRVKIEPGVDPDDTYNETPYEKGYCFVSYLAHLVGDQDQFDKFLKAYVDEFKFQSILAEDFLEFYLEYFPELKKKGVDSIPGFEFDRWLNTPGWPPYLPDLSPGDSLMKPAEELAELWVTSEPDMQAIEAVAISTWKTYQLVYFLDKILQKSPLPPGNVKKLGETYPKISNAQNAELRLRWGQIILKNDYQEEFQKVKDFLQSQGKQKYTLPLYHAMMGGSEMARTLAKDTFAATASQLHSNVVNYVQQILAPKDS

IC50: 160 µM
SMILES: CC(C)C[C@H](NC(=O)[C@@H](O)[C@H](N)Cc1ccccc1)C(=O)O
